≈ marks a conversion by molar mass, not a printed value.
Columns and labels:
[1] = tested on: Bacillus subtilis; experiment: Antibacterial activity against Bacillus subtilis assessed as inhibition of bacterial growth incubated for 48 hrs by liquid microculture method; format: functional
[2] = tested on: Kocuria rhizophila; experiment: Antibacterial activity against Kocuria rhizophila assessed as inhibition of bacterial growth incubated for 48 hrs by liquid microculture method; format: functional
[3] = Antimigratory activity against human EC17 cells assessed as inhibition of cell migration incubated for 12 hrs by microscopic analysis; format: functional, cell-based; details: EC17, 12 h
[4] = Cytotoxicity against human EC17 cells at 0.18 to 18 uM incubated for 12 hrs; format: toxicity, cell-based; details: ec17, 12 h, dose 0.18-18 µM
[5] = tested on: Trypanosoma cruzi; experiment: Antitrypanosomal activity against Trypanosoma cruzi epimastigotes assessed as parasite growth inhibition measured after 24 hrs by CellTiter-glo luminescence assay; format: functional, organism-based
[6] = Cytotoxicity against rat 3Y1 cells assessed as cell growth inhibition incubated for 84 hrs by MTT assay; format: toxicity, cell-based
[7] = Selectivity ratio of GI50 for cytotoxicity against rat 3Y1 cells to IC50 for antitrypanosomal activity against Trypanosoma cruzi epimastigotes; format: toxicity, cell-based

Structure (SMILES)	MIC [1] [µg/mL]	MIC [2] [µg/mL]	IC50 [3] [µM]	Activity [4]	IC50 [5] [µM]	GI50 at 84 h [6] [µM]	selectivity ratio [7]
C/C=C(\C)[C@@H](O)[C@H](C)[C@H](O)C/C=C(C)/C=C(\C)C/C(C)=C/C/C=C(\C)[C@@H](O)[C@@H](C)[C@H]1CC[C@H](CCC)C(=O)O1	100 (≈ 184 µM)	100 (≈ 184 µM)	11	Non-Toxic	6.4	31	4.9
C/C=C(\C)[C@@H](O)[C@H](C)[C@H](O)C/C=C(C)/C=C(\C)C/C(C)=C/C/C=C(\C)[C@@H](O)[C@@H](C)[C@H]1CC[C@H](CCCC)C(=O)O1	100 (≈ 179 µM)	100 (≈ 179 µM)	15	Non-Toxic	12	32	2.8
C/C=C(\C)[C@@H](O)[C@H](C)[C@H](O)C/C=C(C)/C=C(\C)C/C(C)=C/C/C=C(\C)[C@@H](O)[C@@H](C)[C@H]1CC[C@H](CC)C(=O)O1	100 (≈ 188 µM)	100 (≈ 188 µM)	8.3	Non-Toxic	18	3.8	0.22
O=C(Cn1ccnc1[N+](=O)[O-])NCc1ccccc1 [BENZNIDAZOLE]	–	–	–	–	16	–	–

From ChEMBL document CHEMBL5120902, “Phytohabitols A-C, δ-Lactone-Terminated Polyketides from an Actinomycete of the Genus Phytohabitans” (J Nat Prod, 2022)
